Measurements: patent US20240376163A1, “PEPTIDE FOR INHIBITING CALCINEURIN AND USE THEREOF” (Seoul National University R&DB Foundation, priority 2023, published 2024)

System: Jurkat T cells
Test: mRNA sequencing of activated Jurkat T cells
Assay type: cell-based, human

## C=CC[C@@H]1/C=C(\C)C[C@H](C)C[C@H](OC)[C@H]2O[C@@](O)(C(=O)C(=O)N3CCCC[C@H]3C(=O)O[C@H](/C(C)=C/[C@@H]3CC[C@@H](O)[C@H](OC)C3)[C@H](C)[C@@H](O)CC1=O)[C@H](C)C[C@@H]2OC [FK506, Tacrolimus, reference compound]
P+I
  GPR108 FPKM: 31.682 FPKM
  GPR183 FPKM: 5.776 FPKM
  GRAP2 FPKM: 19.094 FPKM
  GRK5 FPKM: 8.481 FPKM
  GZMH FPKM: 7.694 FPKM
  HAPLN3 FPKM: 48.4 FPKM
  HDC FPKM: 26.3 FPKM
  HHIP FPKM: 9.345 FPKM
  HHIP-AS1 FPKM: 32.468 FPKM
  HIVEP2 FPKM: 7.494 FPKM
  HSP90B1 FPKM: 877.39 FPKM
  HSP90B2P FPKM: 8.45 FPKM
  HSPA5 FPKM: 373.499 FPKM
  ICAM1 FPKM: 12.704 FPKM
  ID2 FPKM: 13.425 FPKM
  IER2 FPKM: 181.539 FPKM
  IER3 FPKM: 31.73 FPKM
  IFFO2 FPKM: 2.752 FPKM
  IFIH1 FPKM: 11.544 FPKM
  IFNG FPKM: 3.8 FPKM
  IGLL1 FPKM: 3.429 FPKM
  IGSF9B FPKM: 7.175 FPKM
  IL2RA FPKM: 5.833 FPKM
  IL3 FPKM: 0.062 FPKM
  IL4I1 FPKM: 7.078 FPKM
  IL16 FPKM: 10.552 FPKM
  IL22 FPKM: 3.116 FPKM
  IL23A FPKM: 12.207 FPKM
  IMPA2 FPKM: 3.015 FPKM
  IRF8 FPKM: 1.19 FPKM
  IRF9 FPKM: 39.109 FPKM
  ISM1 FPKM: 0.726 FPKM
  JAK3 FPKM: 8.03 FPKM
  JUN FPKM: 3.835 FPKM
  JUNB FPKM: 55.036 FPKM
  KBTBD11 FPKM: 2.434 FPKM
  KCNK5 FPKM: 3.906 FPKM
  KCTD11 FPKM: 3.399 FPKM
  KIAA0922 FPKM: 12.92 FPKM
  KIF1B FPKM: 11.727 FPKM
  KIF3B FPKM: 13.87 FPKM
  KLF2 FPKM: 1.971 FPKM
  KSR1 FPKM: 4.79 FPKM
  LAIR2 FPKM: 2.203 FPKM
  LAMP3 FPKM: 6.412 FPKM
  LAX1 FPKM: 8.052 FPKM
  LDLRAP1 FPKM: 0.778 FPKM
  LIME1 FPKM: 15.749 FPKM
  LINC00152 FPKM: 32.822 FPKM
  LINC00426 FPKM: 1.041 FPKM
  LINC00528 FPKM: 5.759 FPKM
  LINC00539 FPKM: 5.004 FPKM
  LINC00977 FPKM: 0.741 FPKM
  LOC729603 FPKM: 2.179 FPKM
  LRRC8B FPKM: 3.555 FPKM
  LRRC45 FPKM: 4.142 FPKM
  LYPD3 FPKM: 2.727 FPKM
  MAP2K3 FPKM: 41.815 FPKM
  MAP2K6 FPKM: 1.149 FPKM
  MBOAT2 FPKM: 3.773 FPKM
  MCM4 FPKM: 26.368 FPKM
  MCM5 FPKM: 37.057 FPKM
  METRNL FPKM: 7.501 FPKM
  MIR221 FPKM: 10.429 FPKM
  MIR4435-1HG FPKM: 17.138 FPKM
  MIR6891 FPKM: 24.428 FPKM
  MMP10 FPKM: 11.973 FPKM
  MRPL39 FPKM: 132.452 FPKM
  MYO1D FPKM: 4.59 FPKM
  MYO1G FPKM: 98.59 FPKM
  MYO7B FPKM: 15.796 FPKM
  NAMPT FPKM: 34.628 FPKM
  NDFIP1 FPKM: 22.485 FPKM
  NDFIP2 FPKM: 13.13 FPKM
  NDST3 FPKM: 10.369 FPKM
  NEIL3 FPKM: 9.418 FPKM
  NEXN FPKM: 3.661 FPKM
  NFE2L3 FPKM: 15.944 FPKM
  NFKBIA FPKM: 39.193 FPKM
  NFKBID FPKM: 6.668 FPKM
  NFKBIE FPKM: 11.399 FPKM
  NINJ1 FPKM: 11.769 FPKM
  NKD2 FPKM: 3.385 FPKM
  NKX3-1 FPKM: 7.464 FPKM
  NLRC5 FPKM: 38.784 FPKM
  NPY FPKM: 4.771 FPKM
  NR4A1 FPKM: 52.553 FPKM
  NR4A2 FPKM: 0.04 FPKM
  NRROS FPKM: 36.775 FPKM
  NT5M FPKM: 1.582 FPKM
  NXN FPKM: 2.574 FPKM
  OAS3 FPKM: 13.085 FPKM
  OSBPL3 FPKM: 24.517 FPKM
  PARP9 FPKM: 84.306 FPKM
  PARP14 FPKM: 65.432 FPKM
  PCBP3 FPKM: 4.527 FPKM
  PDE3B FPKM: 9.108 FPKM
  PEAK1 FPKM: 5.442 FPKM
  PELI1 FPKM: 8.175 FPKM
  PHEX FPKM: 0.213 FPKM
  PHF7 FPKM: 3.968 FPKM
  PHLDA1 FPKM: 65.703 FPKM
  PIDD1 FPKM: 5.28 FPKM
  PIM3 FPKM: 42.827 FPKM
  PKIA FPKM: 13.962 FPKM
  PLAU FPKM: 45.171 FPKM
  PLEKHO1 FPKM: 47.519 FPKM
  PLK3 FPKM: 5.257 FPKM
  PMAIP1 FPKM: 26.095 FPKM
  PMEPA1 FPKM: 3.548 FPKM
  PODXL FPKM: 1.86 FPKM
  POU3F2 FPKM: 1.044 FPKM
  PPFIBP1 FPKM: 12.205 FPKM
  PPM1H FPKM: 4.492 FPKM
  PRKCA FPKM: 14.104 FPKM
  PTK2 FPKM: 13.215 FPKM
  PTPN22 FPKM: 6.37 FPKM
  PTPRE FPKM: 14.031 FPKM
  PWWP2B FPKM: 2.769 FPKM
  PXMP2 FPKM: 5.624 FPKM
  RAG1 FPKM: 0.251 FPKM
  RAG2 FPKM: 0.173 FPKM
  RAP1GAP2 FPKM: 0.368 FPKM
  RAP1GAP FPKM: 1.878 FPKM
  RDH10 FPKM: 5.856 FPKM
  REL FPKM: 4.749 FPKM
  RELB FPKM: 29.337 FPKM
  RGS3 FPKM: 2.142 FPKM
  RGS16 FPKM: 1.172 FPKM
  RMI1 FPKM: 8.984 FPKM
  RORB FPKM: 3.782 FPKM
  S1PR1 FPKM: 0.737 FPKM
  SAMD1 FPKM: 15.561 FPKM
  SECISBP2L FPKM: 13.57 FPKM
  SELPLG FPKM: 5.062 FPKM
  SEMA7A FPKM: 26.567 FPKM
  SERPINB2 FPKM: 2.905 FPKM
  SERPINE1 FPKM: 6.785 FPKM
  SH2B3 FPKM: 13.899 FPKM
  SH2D5 FPKM: 1.469 FPKM
  SH3BGRL3 FPKM: 408.163 FPKM
  SH3RF2 FPKM: 27.941 FPKM
  SHC4 FPKM: 0.663 FPKM
  SIT1 FPKM: 48.56 FPKM
  SIX6 FPKM: 15.688 FPKM
  SLC2A3 FPKM: 45.525 FPKM
  SLC2A4RG FPKM: 2.367 FPKM
  SLC7A5 FPKM: 207.842 FPKM
  SLC25A45 FPKM: 3.26 FPKM
  SLCO3A1 FPKM: 3.481 FPKM
  SLIT1 FPKM: 2.6 FPKM
  SMIM14 FPKM: 7.677 FPKM
  SOCS1 FPKM: 9.708 FPKM
  SOCS3 FPKM: 8.922 FPKM
  SOSTDC1 FPKM: 8.472 FPKM
  SPRY2 FPKM: 16.882 FPKM
  SREBF1 FPKM: 14.076 FPKM
  ST3GAL6-AS1 FPKM: 9.039 FPKM
  ST8SIA4 FPKM: 11.077 FPKM
  STARD4 FPKM: 20.118 FPKM
  STAT1 FPKM: 611.139 FPKM
  STAT5A FPKM: 3.347 FPKM
  STX11 FPKM: 2.733 FPKM
  SYTL1 FPKM: 15.004 FPKM
  TBC1D10C FPKM: 23.871 FPKM
  TBC1D20 FPKM: 17.7 FPKM
  TBX21 FPKM: 24.784 FPKM
  THY1 FPKM: 3.994 FPKM
  TIMP2 FPKM: 1.948 FPKM
  TM4SF1 FPKM: 0.439 FPKM
  TM7SF3 FPKM: 29.483 FPKM
  TMEM229B FPKM: 6.813 FPKM
  TMTC4 FPKM: 2.677 FPKM
  TNFRSF4 FPKM: 2.933 FPKM
  TNFRSF12A FPKM: 8.559 FPKM
  TNFRSF14 FPKM: 12.35 FPKM
  TNFSF9 FPKM: 2.568 FPKM
  TNRC6C FPKM: 4.711 FPKM
  TNS3 FPKM: 0.678 FPKM
  TRAF1 FPKM: 11.176 FPKM
  TRAT1 FPKM: 7.968 FPKM
  TRIM22 FPKM: 2.908 FPKM
  TSHR FPKM: 1.535 FPKM
  TSPAN2 FPKM: 2.414 FPKM
  TSPAN7 FPKM: 44.718 FPKM
  TTC28 FPKM: 2.798 FPKM
  TUBB2A FPKM: 7.594 FPKM
  TUBB3 FPKM: 9.713 FPKM
  UHRF1BP1L FPKM: 7.474 FPKM
  USP30-AS1 FPKM: 6.464 FPKM
  VANGL1 FPKM: 9.553 FPKM
  VASH2 FPKM: 5.761 FPKM
  VGF FPKM: 59.749 FPKM
  XAF1 FPKM: 15.924 FPKM
  XBP1 FPKM: 43.828 FPKM
  XYLB FPKM: 1.506 FPKM
  YBX2 FPKM: 1.555 FPKM
  ZC3H12A FPKM: 13.36 FPKM
Upon T-cell activation
  CD27 and CD70 expression: inhibited CD27 and CD70
  RNA levels of representative T-cell activation markers (IL2, IL3, NFATC1, CCL4, CCL20, CXCL8): reduced RNA levels of representative T-cell activation markers
